Data taken from US20210261538A1, “PROTEIN ARGININE METHYLTRANSFERASE 5 (PRMT5) DEGRADATION / DISRUPTION COMPOUNDS AND METHODS OF USE” (ICAHN SCHOOL OF MEDICINE AT MOUNT SINAI, priority 2018, published 2021).

Experiments:
PRMT5 = PRMT5 (Homo sapiens, UniProt O14744); assay: Western blot of PRMT5 protein levels in MCF-7 cells; assay type: cell-based; parameters: endogenous in cells; host or cells: MCF-7; conditions: for suppressing PRMT5 expression: MCF-7 cells (Examples 90-92)
Protocol: MCF-7 cells, HEK293T cells and HeLa cells were cultured in Dulbecco's Modified Eagle Medium (DMEM) supplemented with 10% fetal bovine serum (FBS) in 5% CO2 at 37° C. Jurkat cells were cultured in RPMI 1640 medium supplemented with 10% FBS in 5% CO2 at 37° C. H2171 cells were cultured in HITES medium supplemented with 10% FBS in 5% CO2 at 37° C. HCT116 were cultured in McCoy's 5A medium supplemented with 10% fetal bovine serum (FBS) in 5% CO2 at 37° C. All the cells lines were treated with 5 μM (or indicated concentration) of PRMT5 inhibitor (EPZ015666) or degraders, or equivalent volume of DMSO for 6 days (or indicated time points). Fresh compounds were constituted in medium and used for every 2 days. The antibodies used in this study are: PRMT5 antibody (Active Motif), (3-actin antibody (Sigma), SDMA antibody (collaboration with Cell Signaling Technologies). Cell cultures were harvested at the end of compound treatments and applied subjected to western blotting assay. Briefly, cells were washed with PBS and lysed with RIPA lysis buffer for 20 minutes on ice. Then lysates were centrifuged and the clear supernatant were collected. SDS loading buffer was added to the lysates and then the mixture was boiled at 100° C. for 5 minutes. Samples were loaded to 10% or 12% SDS-PAGE gel and ran at 120V for 1.5 hours. Then the proteins were transferred to PVDF membrane and blocked in 5% milk fat at room temperature for 1 hour. Then the membranes were incubated with indicated antibodies at 4° C. overnight. Membranes were washed with PBST buffer three times for 10 minutes each time and incubated with HRP-conjugated (horse radish peroxidase) secondary antibodies at room temperature for 1 hour. Again the membranes were washed with PBST buffer three times for 10 minutes each time. Finally, the indicated proteins on the membranes were visualized with ECL (enhanced chemiluminescence) reagents. MCF-7 cells were treated with DMSO or indicated compounds at 5 μM for 6 days. […] MCF-7 cells were treated with DMSO or indicated serial dilutions of compounds for 6 days. The PRMT5 protein levels were determined by Western blot.

PRMT5 substrates = assay: Arginine symmetric dimethylation (SDMA Western blot) in MCF-7 cells; assay type: cell-based; conditions: MCF-7 cells (Examples 90-92)
Protocol: MCF-7 cells, HEK293T cells and HeLa cells were cultured in Dulbecco's Modified Eagle Medium (DMEM) supplemented with 10% fetal bovine serum (FBS) in 5% CO2 at 37° C. Jurkat cells were cultured in RPMI 1640 medium supplemented with 10% FBS in 5% CO2 at 37° C. H2171 cells were cultured in HITES medium supplemented with 10% FBS in 5% CO2 at 37° C. HCT116 were cultured in McCoy's 5A medium supplemented with 10% fetal bovine serum (FBS) in 5% CO2 at 37° C. All the cells lines were treated with 5 μM (or indicated concentration) of PRMT5 inhibitor (EPZ015666) or degraders, or equivalent volume of DMSO for 6 days (or indicated time points). Fresh compounds were constituted in medium and used for every 2 days. The antibodies used in this study are: PRMT5 antibody (Active Motif), (3-actin antibody (Sigma), SDMA antibody (collaboration with Cell Signaling Technologies). Cell cultures were harvested at the end of compound treatments and applied subjected to western blotting assay. Briefly, cells were washed with PBS and lysed with RIPA lysis buffer for 20 minutes on ice. Then lysates were centrifuged and the clear supernatant were collected. SDS loading buffer was added to the lysates and then the mixture was boiled at 100° C. for 5 minutes. Samples were loaded to 10% or 12% SDS-PAGE gel and ran at 120V for 1.5 hours. Then the proteins were transferred to PVDF membrane and blocked in 5% milk fat at room temperature for 1 hour. Then the membranes were incubated with indicated antibodies at 4° C. overnight. Membranes were washed with PBST buffer three times for 10 minutes each time and incubated with HRP-conjugated (horse radish peroxidase) secondary antibodies at room temperature for 1 hour. Again the membranes were washed with PBST buffer three times for 10 minutes each time. Finally, the indicated proteins on the membranes were visualized with ECL (enhanced chemiluminescence) reagents. MCF-7 cells were treated with EPZ015666 or YS43-22 at indicated compound concentrations (μM) for 6 days.

MTAP-deleted cells = conditions: cited from earlier work
MCF-7 cells = assay: Cell proliferation assay (Cell-Titer Glo) in MCF-7 cells; assay type: cell-based; conditions: 5 μM, 10 days
Protocol: The same starting number of MCF-7 cells were treated with DMSO, 5 μM EPZ015666 or YS43-22 for up to 10 days. Every two days, fresh compounds were constituted in DMEM medium and added to the cell culture. Relative cell numbers were counted every two days (i.e. day 0, 2, 4, 6, 8 and 10) using Cell-Titer Glo kit (Promega). MCF-7 cells were treated with DMSO, EPZ015666 (5 μM), or YS43-22 (5 μM) for 10 days.

cancer cells = conditions: EPZ015666 alone (Jin, 2016; Kryukov, 2016); cited from earlier work

Chain of PRMT5 (O14744 whole entry): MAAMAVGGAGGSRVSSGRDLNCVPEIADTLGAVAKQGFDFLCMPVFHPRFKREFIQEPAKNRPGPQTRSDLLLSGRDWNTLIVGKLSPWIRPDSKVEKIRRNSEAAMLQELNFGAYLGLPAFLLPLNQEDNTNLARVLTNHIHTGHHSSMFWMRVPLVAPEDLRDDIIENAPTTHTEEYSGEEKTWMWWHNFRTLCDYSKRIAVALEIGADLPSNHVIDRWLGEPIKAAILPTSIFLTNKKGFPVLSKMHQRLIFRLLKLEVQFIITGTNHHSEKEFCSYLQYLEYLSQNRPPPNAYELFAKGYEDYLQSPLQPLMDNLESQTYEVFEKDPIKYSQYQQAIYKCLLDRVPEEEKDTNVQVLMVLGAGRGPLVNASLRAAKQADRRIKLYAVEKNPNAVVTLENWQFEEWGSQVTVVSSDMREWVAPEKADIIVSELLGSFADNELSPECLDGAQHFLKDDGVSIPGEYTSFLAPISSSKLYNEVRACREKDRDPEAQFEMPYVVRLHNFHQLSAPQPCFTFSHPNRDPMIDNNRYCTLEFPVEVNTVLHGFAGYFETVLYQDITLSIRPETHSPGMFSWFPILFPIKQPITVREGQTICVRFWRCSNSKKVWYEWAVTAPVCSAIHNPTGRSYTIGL
Chain of PRMT5 (Q9BQA1 whole entry partner): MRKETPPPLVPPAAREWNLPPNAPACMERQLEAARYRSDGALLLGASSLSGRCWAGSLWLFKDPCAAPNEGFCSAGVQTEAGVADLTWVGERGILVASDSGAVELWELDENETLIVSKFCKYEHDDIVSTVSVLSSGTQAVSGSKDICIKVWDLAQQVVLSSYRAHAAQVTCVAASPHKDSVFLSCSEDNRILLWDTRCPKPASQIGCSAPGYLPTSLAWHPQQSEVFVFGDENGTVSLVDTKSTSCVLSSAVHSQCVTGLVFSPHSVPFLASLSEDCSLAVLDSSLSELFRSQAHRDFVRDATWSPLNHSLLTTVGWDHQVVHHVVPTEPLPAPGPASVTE

| suppressing PRMT5 expression (PRMT5) | PRMT5 protein levels (PRMT5; MCF-7 cells, 5 μM, 6 days, Western blot) | PRMT5 protein levels, concentration and time dependence (PRMT5; MCF-7 cells, serial dilutions of compounds, 6 days, Western blot) | Compound | suppressing PRMT5 activity (PRMT5 substrates) | anti-proliferation effect compared with genetic PRMT5 knockdown (MTAP-deleted cells) | cell growth of MCF-7 cells (MCF-7 cells) | inhibition of cancer cell proliferation (cancer cells) |
| --- | --- | --- | --- | --- | --- | --- | --- |
| especially effective | – | – | Cc1ncsc1-c1ccc(CNC(=O)[C@@H]2C[C@@H](O)CN2C(=O)[C@@H](NC(=O)COCCOCCOCCOCCOCC(=O)N2CC(Nc3cc(C(=O)NC[C@H](O)CN4CCc5ccccc5C4)ncn3)C2)C(C)(C)C)cc1 [YS31-60, N-((S)-3-(3,4-dihydroisoquinolin-2(1H)-yl)-2-hydroxypropyl)-6-((1-((S)-19-((2S,4R)-4-hydroxy-2-((4-(4-methylthiazol-5-yl)benzyl)carbamoyl)pyrrolidine-1-carbonyl)-20,20-dimethyl-17-oxo-3,6,9,12,15-pentaoxa-18-azahenicosanoyl)azetidin-3-yl)amino)pyrimidine-4-carboxamide] | especially effective | – | – | – |
| – | no effect | – | O=C(NC[C@H](O)CN1CCc2ccccc2C1)c1cc(NC2COC2)ncn1 [EPZ015666, reference compound] | – | did not lead to a similar anti-proliferation effect | significantly inhibited | failed to optimally inhibit |
| especially effective | – | concentration- and time-dependent | O=C1CCC(N2C(=O)c3cccc(NCCCCCCC(=O)N4CC(Nc5cc(C(=O)NC[C@H](O)CN6CCc7ccccc7C6)ncn5)C4)c3C2=O)C(=O)N1 (stereo partly drawn) [YS43-8, N-((S)-3-(3,4-dihydroisoquinolin-2(1H)-yl)-2-hydroxypropyl)-6-((1-(7-((2-(2,6-dioxopiperidin-3-yl)-1,3-dioxoisoindolin-4-yl)amino)heptanoyl)azetidin-3-yl)amino)pyrimidine-4-carboxamide] | especially effective | – | – | – |
| especially effective | – | – | Cc1ncsc1-c1ccc(CNC(=O)[C@@H]2C[C@@H](O)CN2C(=O)[C@@H](NC(=O)CCOCCOCCOCCOCCOCCC(=O)N2CC(Nc3cc(C(=O)NC[C@H](O)CN4CCc5ccccc5C4)ncn3)C2)C(C)(C)C)cc1 [YS43-16, N-((S)-3-(3,4-dihydroisoquinolin-2(1H)-yl)-2-hydroxypropyl)-6-((1-((S)-21-((2S,4R)-4-hydroxy-2-((4-(4-methylthiazol-5-yl)benzyl)carbamoyl)pyrrolidine-1-carbonyl)-22,22-dimethyl-19-oxo-4,7,10,13,16-pentaoxa-20-azatricosanoyl)azetidin-3-yl)amino)pyrimidine-4-carboxamide] | especially effective | – | – | – |
